Results: paper PMC11091889, “Silver Organometallics that are Highly Potent Thioredoxin and Glutathione Reductase Inhibitors: Exploring the Correlations of Solution Chemistry with the Strong Antibacterial Effects” (ACS Infectious Diseases, 2024)

Columns and labels:
[1] = target: T1, glutathione reductase (GR) from E. coli (Escherichia coli, UniProt P06715); assay: GR inhibition assay (DTNB reduction); type: biochemical; conditions: ± standard deviation, n = 3, 75 min preincubation
T1 construct: purchased Antibodies online
T1 sequence (P06715 1-450): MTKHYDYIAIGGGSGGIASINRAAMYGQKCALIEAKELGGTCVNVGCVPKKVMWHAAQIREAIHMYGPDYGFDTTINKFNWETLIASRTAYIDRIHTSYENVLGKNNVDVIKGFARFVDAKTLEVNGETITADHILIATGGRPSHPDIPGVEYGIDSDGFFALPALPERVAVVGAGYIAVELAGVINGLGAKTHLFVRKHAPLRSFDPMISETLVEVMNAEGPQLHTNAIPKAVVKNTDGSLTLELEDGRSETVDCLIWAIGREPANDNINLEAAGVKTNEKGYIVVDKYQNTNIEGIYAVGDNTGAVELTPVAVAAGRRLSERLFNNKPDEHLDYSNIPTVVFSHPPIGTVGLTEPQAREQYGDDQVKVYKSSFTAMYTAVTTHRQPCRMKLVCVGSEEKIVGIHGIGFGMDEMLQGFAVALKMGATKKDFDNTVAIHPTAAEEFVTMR
Description: (§1) The inhibition of purified E. coli thioredoxin reductase (TrxR) and glutathione reductase (GR) from both E. coli and baker’s yeast was determined according to a previously applied procedure.[59],[60]
(§2) The TrxR (E. coli) and GR (baker’s yeast and E. coli) inhibition assays were performed according to previously published procedures.[62],[75] The assays are partly based on the procedure developed by Lu et al.[60] and make use of the reduction of 5,5′-dithiobis(2-nitrobenzoic acid) (DTNB). Solutions of E. coli TrxR (35.4 U/mL) and E. coli thioredoxin (Trx) (156 μg/mL) (both purchased from Sigma-Aldrich) or baker’s yeast GR (0,08 U/mL, Sigma-Aldrich) or E. coli GR (4.2 U/ml, Antibodies online) and GSSG (0.28 mM, Sigma-Aldrich) in distilled water were prepared, as were fresh 2 mM stock solutions of the test compounds in DMSO. Then, solutions with several concentrations of the test compounds in DMSO were prepared, and 35 μL of each solution was diluted with 965 μL of TE buffer (Tris–HCl 50 mM, EDTA 1 mM, pH 7.5). These solutions (20 μL) or TE buffer without the test compounds (20 μL, as control) were mixed with the TrxR or GR solutions (10 μL), the Trx or GSSG solutions (10 μL), and a solution of NADPH (200 μM) in TE buffer (100 μL) in a well on a 96-well plate. As a blank solution, 200 μM NADPH in TE buffer (100 μL) mixed with a DMSO/buffer mixture (40 μL) was used (final concentrations of DMSO: 0.5% v/v). The plate was incubated for 75 min at 25 °C with moderate shaking. After incubation, 100 μL of a reaction mixture (TE buffer containing 200 μM NADPH and 5 mM DTNB) was added to each well to initiate the reaction. After thorough mixing, the formation of 5-TNB was monitored by a microplate reader at 405 nm in 35 s intervals (10 measurements). The values were corrected by subtraction of the blank solution absorption values. The increase in the concentration of 5-TNB followed a linear trend (r^2 ≥ 0.990), and the enzymatic activities were calculated as the gradients (increase in absorbance per second) thereof. […] The inhibition is presented as the mean IC50 values and standard deviations obtained in three independent experiments.

[2] = tested on: E. coli (DSM1116, ATCC 9637); assay: microbe, parasite or virus in culture; type: cell-based, Escherichia coli; conditions: for MIC E. coli DSM 1116 in MHB + tryptone: Müller-Hinton Broth with tryptone (17 g/L); for MIC E. coli DSM 1116 in MHB + tryptone / MIC E. coli DSM 1116 in MHB + yeast extract / MIC E. coli DSM 1116 in MHB: ± SE; for MIC E. coli DSM 1116 in MHB + yeast extract: Müller-Hinton Broth with yeast extract (3 g/L); for MIC E. coli DSM 1116 in MHB: Müller-Hinton Broth without additive; for EC50 / MIC E. coli: mean ± standard error; for EC50 / MIC E. coli / MIC E. coli (value in brackets): n = 3, MHB; for MIC E. coli / MIC E. coli (value in brackets): 22 h
Outline: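 Escherichia coli DSM1116 (ATCC 9637) was tested by broth microdilution in 96-well plates in duplicate, with compounds serially diluted from 64 to 1 μg/mL. Inocula of 2–8 × 10^5 CFU/mL were used in MHB (21 g/L Müller Hinton broth, pH 7.4), either alone or supplemented with tryptone (17 g/L) or yeast extract (3 g/L). After 22 h at 37 °C, absorbance at 600 nm was read. MIC and EC50 were obtained by curve fitting in Sigma Plot from three independent experiments, and ciprofloxacin served as the positive control.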

[3] = tested on: P. aeruginosa (PA 14) biofilm; assay: Inhibition of biofilm formation, crystal violet staining; type: cell-based, Pseudomonas aeruginosa; conditions: for smallest active concentration for biofilm inhibition: concentration at which the % inhibition was found; for biofilm inhibition: ± SD, n = 4, at the respective smallest active concentration, 24 h
Description: Silver and its complexes can strongly affect the growth of biofilms.[56]−[58] In view of the promising activity against Gram-negative bacteria as mentioned above, we evaluated the inhibiting effect of the silver complexes on biofilm production by P. aeruginosa by a method based on crystal violet staining (Table 4 and Figure S14). Complexes 3a–c and 4a–c were selected for the test based on the results of solubility, stability, and antibacterial screening. […] The lower activity of 3c might be explained by its lower kinetic solubility in the aqueous environment (see Figure 4).
The antibiofilm activity was determined according to a literature method.[73] A 1 mL aliquot of P. aeruginosa (PA 14) was taken from −20 °C stock, incubated in 25 mL LB medium (Luria–Bertani Broth) in a 250 mL flask, and kept at 37 °C at 100 rpm overnight. The optical density at 600 nm (OD600) of the culture solution was adjusted to match the turbidity of a 0.1 McFarland standard in M63 medium.[74] Selected compounds were mixed with 150 μL of bacterial solution in U-bottom 96 well plates to the final respective concentrations (25–0.2 μg/mL). The plates were further incubated at 37 °C for 24 h while shaking at 150 rpm. Afterward, the plates were rinsed once with 150 μL of PBS buffer, and the biofilms were stained using 150 μL of crystal violet (0.1%) staining at room temperature for 15 min and then rinsed once with PBS buffer. After rinsing, 150 μL of ethanol (95%) was added, and the absorbance was quantified using a plate reader (Synergy 2, BioTek, Santa Clara, USA) at 550 nm. The resulting antibiofilm activity is presented as percentage of inhibition at the respective smallest active concentration in μM with standard deviation (SD) of two repeats with duplicates. Myxovalargin A and DMSO (2.5%) were used as the positive and negative controls, respectively.

[4] = target: T2, glutathione reductase (GR) from baker's yeast (Saccharomyces cerevisiae, UniProt P41921); assay: GR inhibition assay (DTNB reduction); type: biochemical; conditions: ± standard deviation, n = 3, 75 min preincubation
T2 construct: purchased Sigma-Aldrich
T2 sequence (P41921 17-483 limits assumed): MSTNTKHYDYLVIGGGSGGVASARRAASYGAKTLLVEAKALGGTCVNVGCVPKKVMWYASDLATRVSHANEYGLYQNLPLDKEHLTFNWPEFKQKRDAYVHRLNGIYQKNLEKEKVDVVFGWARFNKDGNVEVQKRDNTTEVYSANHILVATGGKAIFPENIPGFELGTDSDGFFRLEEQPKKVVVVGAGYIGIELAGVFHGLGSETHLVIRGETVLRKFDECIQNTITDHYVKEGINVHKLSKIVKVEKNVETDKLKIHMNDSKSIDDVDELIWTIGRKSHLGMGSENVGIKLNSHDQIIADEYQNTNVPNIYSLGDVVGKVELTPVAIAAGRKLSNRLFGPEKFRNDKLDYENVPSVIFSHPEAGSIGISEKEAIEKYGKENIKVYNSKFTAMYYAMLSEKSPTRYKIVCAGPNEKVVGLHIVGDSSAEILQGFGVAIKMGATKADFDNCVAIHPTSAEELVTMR
Description: as §1, §2

[5] = 25 mM in DMSO, dark, 24 h, visual inspection
Description: Because of the formation of black colloidal silver in the course of degradation, the solution stability of silver NHC complexes can be monitored visually and with the help of nephelometry. All synthesized complexes were dissolved at 25 mM in DMSO and kept in the dark for 24 h.
After the experiment, the DMSO stock solutions of compounds were kept away from direct light at room temperature for 24 h to monitor the stability of solutions.

SMILES	IC50 [1] [nM]	MIC E. coli DSM 1116 in MHB + tryptone [2] [µM]	MIC E. coli DSM 1116 in MHB + yeast extract [2] [µM]	MIC E. coli DSM 1116 in MHB [2] [µM]	EC50 [2] [nM]	MIC E. coli [2] [µM]	MIC E. coli (value in brackets) [2] [µg/mL]	smallest active concentration for biofilm inhibition [3] [µM]	biofilm inhibition [3] [%]	IC50 [4] [nM]	Solution stability (signs of degradation, precipitation, silver colloid) [5]
CC(C)n1[c](=[Ag][Br])n(Cc2ccccn2)c2ccccc21 [3b, Bromido (1-Isopropyl-3-(pyridin-2-ylmethyl)-benzimidazol-2-ylidene) Silver(I)]	41 ± 7	145.7 ± 0.0	121.5 ± 24.3	36.4 ± 0.0	28700 ± 3600	36.4 ± 0.0	16	7.1	74 ± 5	41 ± 6	
CC(C)n1[c](=[Ag][Cl])n(Cc2ccccn2)c2ccccc21 [3a, Chlorido (1-Isopropyl-3-(pyridin-2-ylmethyl)-benzimidazol-2-ylidene) Silver(I)]	32 ± 2	162.2 ± 0.0	162.2 ± 0.0	40.5 ± 0.0	35300 ± 1100	40.5 ± 0.0	16	7.9	71 ± 4	44 ± 4	
COCCn1[c](=[Ag][I])n(Cc2ccccn2)c2ccccc21 [4c, Iodido (1-(2-Methoxyethyl)-3-(pyridin-2-ylmethyl)-benzimidazol-2-ylidene) Silver(I)]					14400 ± 2700	21.2 ± 5.3	11	6.2	66 ± 6		did not show clear signs of degradation
CC(C)n1[c](=[Ag][I])n(Cc2ccccn2)c2ccccc21 [3c, Iodido (1-Isopropyl-3-(pyridin-2-ylmethyl)-benzimidazol-2-ylidene) Silver(I)]	39 ± 6	54.9 ± 11.0	43.9 ± 11.0	11.0 ± 2.7	8800 ± 2500	11.0 ± 2.7	5	13.0	55 ± 19	49 ± 4	did not show clear signs of degradation
